Experimental data from PubChem BioAssay AID1963854 (Molecular Pharmacology Branch, DTP, NCI, 2024).

Test system: 186277-243-T-J2-PDC complex spheroid viability
Experiment: Anticancer human tumor 186277-243-T-J2-PDC patient-derived colon adenocarcinoma cell line growth inhibition [POLQ]
Settings: for IC50: curve of first compound; for viability, T/C: stronger effect = lower value
Protocol: Multicellular complex tumor spheroid response to Polymerase (POL) inhibitors (novobiocin, ART-558, RP6685) in combination with a variety of drugs and investigational agents in selected tumor cell lines
The POL inhibitors (novobiocin, ART-558, and RP6685) were evaluated both individually and in combination with standard of care and investigational anticancer small molecules within a complex spheroid model of solid tumors. . Complex spheroids include a stromal component modeled by human endothelial cells (HUVEC) and fibroblasts modeled by human mesenchymal stem cells (MSCs). The concentration ranges selected for each drug and investigational agent were based upon clinically achievable concentrations if the clinical Cmax of the agent was known.
Compounds. The drugs and investigational agents: novobiocin (NSC847541), ART-558 (NSC835418), RP-6685 (NSC848927), peposertib (NSC802822), ceralasertib (NSC780249), elimusertib (NSC800525), camonsertib (NSC841442), AZD-1390 (NSC803789), olaparib (NSC753686), talazoparib (NSC767125), rucaparib (NSC756644), sotorasib (NSC818433), MRTX-1133 (NSC836407), SN-38 (NSC673596), topotecan (NSC609699), epotoside (NSC141540), doxorubicin (NSC123127), gemcitabine (NSC613327), 5-fluorouracil (NSC19893), paclitaxel (NSC125973), vemurafenib (NSC761431), MSA-2 (NSC828583), SN-011 (NSC837082), adavosertib (NSC754352), prexasertib (NSC758257), carboplatin (NSC241240) and oxaliplatin (NSC266046), were obtained from the National Cancer Institute (NCI) Developmental Therapeutics Program Chemical Repository (21). The FDA-approved anticancer drug set is available from the Developmental Therapeutics Program at https://dtp.cancer.gov/organization/dscb/obtaining/. […] The stock solutions were prepared in dimethyl sulfoxide (DMSO, Sigma-Aldrich, St. Louis, MO, cat. D2650), except for the platinum compounds which were prepared in saline (Quality Biological, Gaithersburg, MD, cat. 114-055-101), at 800-fold the tested concentration and stored at -70 degrees C prior to their use. All drugs and investigational agents were tested over a range starting from a high concentration at or near the clinical Cmax and decreasing in half-log increments. If the clinical Cmax for an agent had not been determined, the highest concentration tested was 10 microM, except for SN-38, which was tested at a high concentration of 1 microM.
Cell Culture. All cells were maintained in an incubator at 37 degrees C and 5% CO2 with 95% humidity. The PDC lines were cultured according to standard operating procedures established by the NCI PDMR (https://pdmr.cancer.gov). Table 3 of the manuscript, lists the cell lines along with the number of the three cell types plated to form the mct-spheroids and media for tumor cell growth. After thawing, all PDC lines, except 997537-175-T-J1-PDC and 415267-285-R-J2-PDC, were cultured in Matrigel-coated flasks prepared with a working solution of 1X Ham's F-12 nutrient mix, without supplementation (Thermo Fisher Scientific, cat. 11765054), 100 U/mL penicillin-streptomycin (Thermo Fisher Scientific, cat. 15140122), and 2.5% Matrigel (Corning Inc., Corning, NY, cat. 354248) for the first three passages. The two PDC lines 997537-175-T-J1-PDC and 415267-285-R-J2-PDC were cultured on uncoated flasks. The 857933-349-R-J2-PDC line was cultured in 6C/Colon 1B media containing advanced DMEM/F-12 (Thermo Fisher Scientific, cat. 12634028), 10 mM HEPES (Thermo Fisher Scientific, cat. 15630080), 1X GlutaMAX supplement (Thermo Fisher Scientific, cat. 35050061), 0.1 mg/mL primocin (InvivoGen, San Diego, CA, cat. ant-pm-2), 10% defined fetal bovine serum, heat inactivated (HyClone Laboratories Inc., Logan, UT, cat. SH30070.03HI), 50% L-WRN conditioned media (ATCC, cat. CRL-3276), 1.25 mM N-Acetyl-L-cysteine (Sigma-Aldrich, cat. A9165), 10 mM nicotinamide (Sigma-Aldrich, cat. N0636), 1X B-27 supplement (Thermo Fisher Scientific, cat. 17504044), 1X N-2 supplement (Thermo Fisher Scientific, cat. […]

[1] = second compound 0.0316 µM, first compound 0.0316 µM
[2] = second compound 0.0316 µM, first compound 0.1 µM
[3] = second compound 0.0316 µM, first compound 0.316 µM
[4] = second compound 0.0316 µM, first compound 1 µM
[5] = second compound 0.0316 µM, first compound 3.16 µM
[6] = second compound 0.0316 µM, first compound 10 µM
[7] = second compound 0.1 µM, first compound 0.0316 µM
[8] = second compound 0.1 µM, first compound 0.1 µM
[9] = second compound 0.1 µM, first compound 0.316 µM
[10] = second compound 0.1 µM, first compound 1 µM
[11] = second compound 0.1 µM, first compound 3.16 µM
[12] = second compound 0.1 µM, first compound 10 µM
[13] = second compound 0.316 µM, first compound 0.0316 µM
[14] = second compound 0.316 µM, first compound 0.1 µM
[15] = second compound 0.316 µM, first compound 0.316 µM
[16] = second compound 0.316 µM, first compound 1 µM
[17] = second compound 0.316 µM, first compound 3.16 µM
[18] = second compound 0.316 µM, first compound 10 µM
[19] = second compound 1 µM, first compound 0.0316 µM
[20] = second compound 1 µM, first compound 0.1 µM
[21] = second compound 1 µM, first compound 0.316 µM
[22] = second compound 1 µM, first compound 1 µM
[23] = second compound 1 µM, first compound 3.16 µM
[24] = second compound 1 µM, first compound 10 µM
[25] = second compound 3.16 µM, first compound 0.0316 µM
[26] = second compound 3.16 µM, first compound 0.1 µM
[27] = second compound 3.16 µM, first compound 0.316 µM
[28] = second compound 3.16 µM, first compound 1 µM
[29] = second compound 3.16 µM, first compound 3.16 µM
[30] = second compound 3.16 µM, first compound 10 µM
[31] = second compound 10 µM, first compound 0.0316 µM
[32] = second compound 10 µM, first compound 0.1 µM
[33] = second compound 10 µM, first compound 0.316 µM
[34] = second compound 10 µM, first compound 1 µM
[35] = second compound 10 µM, first compound 3.16 µM
[36] = second compound 10 µM, first compound 10 µM
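Further: spheroids exposed to compounds for seven days.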
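Wherever viability, T/C is given: 100% = DMSO vehicle control viability.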

In the case of `CNCc1ccc(-c2[nH]c3cc(F)cc4c3c2CCNC4=O)cc1` + COC1C(OC(N)=O)C(O)C(Oc2ccc3c(O)c(NC(=O)c4ccc(O)c(CC=C(C)C)c4)c(=O)oc3c2C)OC1(C)C, the IC50 (second compound 0.0316 µM) is reported as over 10 µM, the IC50 (second compound 0.1 µM) is reported as over 10 µM and the IC50 (second compound 0.316 µM) is reported as over 10 µM. For the same compound, the IC50 (second compound 1 µM) was over 10 µM, the IC50 (second compound 3.16 µM) was over 10 µM and the IC50 (second compound 10 µM) was over 10 µM. It also gave a viability, T/C [1] of 99%, a viability, T/C [2] of 96.1% and a viability, T/C [3] of 91%. For the same compound, the viability, T/C [4] was 85.8%, the viability, T/C [5] was 99.3% and the viability, T/C [6] was 116%. For the same compound, the viability, T/C [7] was 102%, the viability, T/C [8] was 96.3% and the viability, T/C [9] was 106%. The viability, T/C [10] was 105%, the viability, T/C [11] was 106% and the viability, T/C [12] was 99%. The viability, T/C [13] was 110%, the viability, T/C [14] was 99.8% and the viability, T/C [15] was 102%. For the same compound, the viability, T/C [16] was 93.1%, the viability, T/C [17] was 115% and the viability, T/C [18] was 115%. It also gave a viability, T/C [19] of 87.1%, a viability, T/C [20] of 107% and a viability, T/C [21] of 101%. For the same compound, the viability, T/C [22] was 104%, the viability, T/C [23] was 102% and the viability, T/C [24] was 101%. The viability, T/C [25] was 87%, the viability, T/C [26] was 104% and the viability, T/C [27] was 108%. For the same compound, the viability, T/C [28] was 99.6%, the viability, T/C [29] was 109% and the viability, T/C [30] was 112%. The viability, T/C [31] was 103%, the viability, T/C [32] was 105% and the viability, T/C [33] was 104%. It also gave a viability, T/C [34] of 93.1%, a viability, T/C [35] of 104% and a viability, T/C [36] of 112%.

Work on `CCCS(=O)(=O)Nc1ccc(F)c(C(=O)c2c[nH]c3ncc(-c4ccc(Cl)cc4)cc23)c1F` + COC1C(OC(N)=O)C(O)C(Oc2ccc3c(O)c(NC(=O)c4ccc(O)c(CC=C(C)C)c4)c(=O)oc3c2C)OC1(C)C yielded an IC50 (second compound 0.0316 µM) of 8.12 µM, an IC50 (second compound 0.1 µM) of 7.84 µM and an IC50 (second compound 0.316 µM) of over 10 µM. It also gave an IC50 (second compound 1 µM) of 7.81 µM, an IC50 (second compound 3.16 µM) of 9.15 µM and an IC50 (second compound 10 µM) of over 10 µM. It also gave a viability, T/C [1] of 95%, a viability, T/C [2] of 90% and a viability, T/C [3] of 86.5%. The viability, T/C [4] was 93.4%, the viability, T/C [5] was 88.5% and the viability, T/C [6] was 41.5%. The viability, T/C [7] was 98.4%, the viability, T/C [8] was 76.9% and the viability, T/C [9] was 96.2%. The viability, T/C [10] was 79.7%, the viability, T/C [11] was 87.7% and the viability, T/C [12] was 39.9%. For the same compound, the viability, T/C [13] was 91.4%, the viability, T/C [14] was 90.4% and the viability, T/C [15] was 89.7%. For the same compound, the viability, T/C [16] was 92.8%, the viability, T/C [17] was 101% and the viability, T/C [18] was 52%. The viability, T/C [19] was 91.2%, the viability, T/C [20] was 97.2% and the viability, T/C [21] was 86.6%. The viability, T/C [22] was 86.8%, the viability, T/C [23] was 97.6% and the viability, T/C [24] was 38.5%. The viability, T/C [25] was 92.2%, the viability, T/C [26] was 96.6% and the viability, T/C [27] was 93.5%. The viability, T/C [28] was 90.6%, the viability, T/C [29] was 88% and the viability, T/C [30] was 46.7%. The viability, T/C [31] was 118%, the viability, T/C [32] was 89.7% and the viability, T/C [33] was 93.6%. The viability, T/C [34] was 94%, the viability, T/C [35] was 92% and the viability, T/C [36] was 50.3%.
